# From publication PMC5493200 (ACS infectious diseases, 2016)
# System: drug resistant clinical M. tuberculosis isolates
# Assay type: cell-based, Mycobacterium tuberculosis
# Set-up: unit not given beside the values
# Settings: 29 clinical isolates, 18 MDR and 5 XDR
compound,measurement,value
"Br.Br.Br.CN[C@@H]1[C@H](O)[C@H](NC)[C@H]2O[C@]3(O)[C@H](O[C@@H]2[C@H]1O)O[C@H](C)C[C@H]3NC(=O)Cc1cc(Cl)c(F)cn1 [Compound 49, 3′-Dihydro-3′-deoxy-3′(R)-(4-chloro-5-fluoropyridin-2-yl)acetylamino spectinomycin trihydrobromide]",MIC range,0.39–1.56
"CN[C@@H]1[C@H](O)[C@H](NC)[C@H]2O[C@]3(O)[C@H](O[C@@H]2[C@H]1O)O[C@H](C)C[C@H]3NC(=O)Cc1ccc(O)cn1.Cl.Cl.Cl [Compound 39, 3′-Dihydro-3′-deoxy-3′(R)-(5-hydroxypyridin-2-yl)acetylamino spectinomycin trihydrochloride]",MIC range,1.56–3.13
